# Test results from patent EP0638125B1, “AC[…] A PRODUCER OF RAPAMYCIN” (PFIZER INC., priority 1992, dated 1993).
# How the values were obtained:
# Format in all cases: cell-based
# [1] = cytotoxicity, standard procedure (Mosmann)
# Description: (§1) The IC₅₀ values (µg/ml) of MLR and cytotoxicity for rapamycin were 7 x 10⁻³ and >3.0, respectively when tested by standard procedures for MLR (D. P. Dubey et al., Manual of Clinical Laboratory Immunology, 3rd Ed., pp. 847-858, 1986) and for cytotoxicity (T. Mosmann, J., J. Immunol. Methods, 65, 55-63, 1983).
# [2] = tested on: mixed lymphocyte reaction (MLR); assay: mixed lymphocyte reaction (MLR), standard procedure (Dubey et al.); details: read-out: IC₅₀ values of MLR
# Description: as §1
# [3] = tested on: Candida albicans; assay: antifungal activity, agar plate dilution method with paper disk; details: 40 µg/disk, 8 mm diameter paper disk, agar medium for neomycin assay (Difco)
# Method: Antifungal activity was determined by an agar plate dilution method using a fungal culture, Candida albicans. The diameter of inhibition zone of rapamycin was 25 mm when tested at 40 µg/disk (8 mm diameter paper disk, Advantic) on an commercially available agar medium for neomycin assay (Difco).
compound,measurement,setting,value
CO[C@H]1C[C@@H]2CC[C@@H](C)[C@@](O)(O2)C(=O)C(=O)N2CCCC[C@H]2C(=O)O[C@H]([C@H](C)C[C@@H]2CC[C@@H](O)[C@H](OC)C2)CC(=O)[C@H](C)/C=C(\C)[C@@H](O)[C@@H](OC)C(=O)[C@H](C)C[C@H](C)/C=C/C=C/C=C/1C [rapamycin],CC50,[1],> 3 µg/mL
same,IC50,[2],7 ng/mL
same,zone of inhibition at 40 µg/disc,[3],25 mm
